# Measured values: patent US9962427B2, “Treatment of right ventricular dysfunction due to pressure overload” (OTTAWA HOSPITAL RESEARCH INSTITUTE, priority 2016, dated 2018)
# Columns and labels:
# [1] = test system: rats; assay: M-mode ECHO after 2 weeks of osmotic minipump delivery in rats; assay type: in vivo, rat; settings: ISO 1 mg/kg/day
# Experimental: FIGS. 3A, 3B, and 3C. […] Arrows (in upper panels) point to myocardial wall (RVLW). Dotted lines (in lower panels) show inner ventricle chambers.
# CT-1 was tested in vivo to determine whether its administration would induce a myocardial adaptive remodeling characteristic of physiologic compensation (FIGS. 3A, 3B, and 3C). Osmotic minipumps containing PBS control (Ctrl) or hCT1 (6 μg/kg/hr) or Isoproterenol (ISO, 1 mg/kg/day) were implanted subcutaneously in rats. ISO is a beta-adrenergic receptor agonist and continuous infusion with ISO in rats is known to induce pathological cardiac hypertrophy and cardiomyocyte damage (in both the right and left ventricles) which progresses to heart failure (Morisco et al (2001) J Mol Cell Cardiol 33:561-573 and Grimm et al (1998) Cardiovascular Research 37:91-100). After 2 weeks of treatment, M-mode ECHO analysis was used to assess myocardial structure/function (FIG. 3A). In this model, an increased right ventricle lateral wall (RVLW) thickness indicates the presence of myocardiocytes growth, and an increased ratio of the right to left ventricle internal diameters (RVID/LVID) is an indicator of pathologic hypertrophy. An increased RVLW thickness but constant or reduced RVID:LVID ratio is an indicator of adaptive compensatory RV remodeling. Both hCT1 and ISO induced a significant increase in RVLW thickness (12% and 32% fold increase, respectively) compared to control rats (n=3; * and **, P<0.05). […] An in vivo growth reversal analysis was also conducted. Following a 2 week delivery of CT-1 protein (6 μg/kg/hr) or PE (10 mg/kg/day) as the pathologic control in this case, animals were then assessed for cardiac structure/function at a 6 week follow-on period. […] Collectively, these studies support the contention that CT-1 elicits a reversible physiologic cardiac adaptive compensation.
# [2] = test system: cardiomyocytes
# Experimental: FIG. 7B Quantitation of cell viability analysis as shown in (A). FIG. 7C Quantification of PI cell viability FACS analysis following a 24 hrs treatment of cardiomyocytes with H2O2 in the presence or absence of hCT1. Pre-treatment with PI3K inhibitor (LY294002, 50 μM) before H2O2 was also tested.
# Cardiomyocytes were treated with control serum-free media or with H2O2 (300 μM, 1 hr) to induce cell death in the presence or absence of hCT1 (0.5 nM). After 24 hrs, cells were incubated with the cell viability marker Propidium Iodide (PI) (1 μg/mL) and analyzed by FACS (Ex: 535 nm, Em: 617 nm) for viable cells; i.e. cells inside the gated region of the side scatter (SS) versus PI plot (FIG. 7A). […] The PI3K pathway is a critical feature of physiological cardiac adaptive compensation and is a key protective feature distinguishing it from pathological adaptive compensation. Therefore, cardiomyocytes were pre-treated with a PI3K inhibitor (LY294002, 50 μM) before CT-1/H2O2 treatment.
# [3] = test system: NFAT; assay: NFAT luciferase reporter adenovirus (Nfat-AdV) in cardiomyocytes; assay type: cell-based; settings: as early as 3 hours, up to 24 hours; PE 100 μM, PAC-1 25 μM
# Experimental: (§1) FIGS. 6A, 6B, and 6C. Stimulation with hCT1 causes sustained activation of NF-κB and Stat3 with limited activation of Mef2, as well as limited Nfat activation; the latter two indices are distinct expression patterns from pathologic hypertrophic stimulation. FIG. 6A Primary neonatal cardiomyocytes were transfected with luciferase reporter plasmids (NF-κB or Mef2), as indicators of hypertrophic activity. Luciferase activity was measured after treatments for 24 hrs with: hCT1 (0.5 nM), PE (100 μM), or procaspase 3 activating compound 1, PAC-1 (25 μM) (left). Treatments at early timepoints (30 min, 1 hr, and 3 hr) were also conducted for hCT1 (right). FIG. 6B Primary neonatal cardiomyocytes were transfected with a luciferase reporter plasmid for Stat3. Luciferase activity was measured after treatments for 24 hrs with: hCT1 (0.5 nM), PE (100 μM), or procaspase 3 activating compound 1, PAC-1 (25 μM) (left) and at earlier time points (right). FIG. 6C Primary neonatal cardiomyocytes were infected with a luciferase-based Nfat reporter Adenovirus (Nfat-AdV). Luciferase activity was measured after treatments for 24 hrs with: hCT1 (0.5 nM), PE (100 μM), or procaspase 3 activating compound 1, PAC-1 (25 μM) (left) and at earlier time points (right)
# Applicants tested this supposition by infecting cardiomyocytes with an NFAT luciferase reporter linked to an Adenovirus (AdV) backbone (FIG. 6C). Cardiomyocytes were infected at a […] (MOI) of 20 with Nfat-AdV for 24 hours prior to stimulation with hCT1 (0.5 nM), PE (100 μM), or procaspase 3 activating compound 1, PAC-1 (25 μM). As an initial positive control, co-infection of NFAT-AdV with activated Calcineurin-AdV (a phosphatase and potent activator of NFAT signalling) caused a significant increase in NFAT activity (n=4; *, P<0.05). […] Although the exact mechanism of inhibition is unknown, Applicant has shown CT-1 engaging a PI3K signalling pathway and it would be reasonable to postulate that phosphorylation of NFAT by CT-1/PI3K signalling would limit NFAT activity.
# [4] = test system: Mef2; assay: Mef2 luciferase reporter in primary neonatal cardiomyocytes; assay type: cell-based; settings: hCT1 0.5 nM, PE 100 μM, PAC-1 25 μM
# Experimental: as §1
# The signaling pathways that CT-1 engages in mediating physiologic adaptive compensatory remodeling were examined. The applicants predicted that cardiomyocyte adaptive remodeling mediated by CT-1 results (in part) from the induction of a specific transcriptional program, which is distinct from that of pathologic hypertrophic response. To address this hypothesis, the applicants tested the activity of two well-known transcription factor families that have been linked to both physiologic and pathologic cardiomyocyte growth, the Mef2 (Kolodziejczyk et al. 1999 Curr Biol. 9, 1203-1206; Kim et al. 2008, J Clin Invest. 118, 124-132.) and the NF-κB family (Gordon et al. 2011, Circ Res. 108, 1122-1132). Primary neonatal cardiomyocytes were transfected with luciferase reporter plasmids (NF-κB and Mef2) to be used as a read out of transcriptional activity. Luciferase activity was determined after treatments for 24 hrs with: hCT1 (0.5 nM), PE (100 μM), or procaspase 3 activating compound 1, PAC-1 (25 μM). […] This pattern of transcription factor activation was distinct from that induced by PE and by the caspase 3 specific activating compound PAC-1.
# [5] = test system: Vascular Endothelial Growth Factor—VEGF; assay: VEGF expression by immunofluorescence in primary cardiomyocytes; assay type: cell-based; settings: 24 hours; hCT1 0.5 nM, PE 100 μM, PAC-1 25 μM
# Experimental: FIGS. 8A and 8B. […] FIG. 8B Microarray analysis of primary cardiomyocytes stimulated with hCT1 (0.5 nM) for 24 hours.
# Applicant explored the role of CT-1 as a pro-angiogenic factor in the adaptive hypertrophic response. Physiologic cardiac adaptive compensation is associated with an increase in capillary density, whereas pathologic response is characterized by a decline or no change at all. Importantly, the compensatory vascular growth/angiogenesis that occurs during physiologic adaptive compensation is permissive for the increased workload that accompanies physiologic adaptive compensation. Despite this adaptation, little information exists regarding the mechanisms that match the demand for angiogenesis to the beneficial form of myocardial growth. The rapid in vitro and in vivo adaptive compensation in response to CT-1 supports a hypothesis that the cardiomyocyte itself may act in a paracrine fashion, to signal and promote angiogenesis. To address this conjecture, Applicant examined whether CT-1 treated primary cardiomyocytes produced vascular endothelial growth factor (VEGF), an angiogenic factor known to be produced and secreted by cardiomyocytes. Primary cardiomyocytes were incubated with control serum-free media (Ctrl, SF media) or stimulated with hCT1 (0.5 nM), PE (100 μM), or PAC-1 (25 μM) for 24 hours. Immunofluorescence was used to detect α-actinin, Vascular Endothelial Growth Factor—VEGF, and nuclei. […] Based on these observations Applicant next conducted a comparative gene expression analysis of control (non-stimulated) versus CT-1 treated (0.5 nM, 24 hours) primary cardiomyocytes, using the Affymetrix Rat gene 2.0ST array.
# [6] = test system: STAT3; assay: STAT3 luciferase reporter in cardiomyocytes; assay type: cell-based; settings: 30 minutes up to 24 hours; hCT1 0.5 nM, PE 100 μM, PAC-1 25 μM
# Experimental: as §1
# Moreover, it is reasonable to assume that CT-1 may moderate the activity of additional transcription factors, which further contribute to the adaptive compensation phenotype. As such, Applicants decided to test the hypothesis that STAT3 (Signal transducer and activator of transcription 3) dependent transcriptional activity is a specific determinant for CT-1 induced physiologic adaptive compensation. STAT3 phosphorylation and transcriptional activation is a response that is common to the Interleukin-6 cytokine family (of which CT-1 is a member), which is mediated through binding and activation of a JAK/gp130 (Janus kinase/[…]) receptor complex.
compound,measurement,setting,value
"CC(C)NCC(O)c1ccc(O)c(O)c1 (stereo not drawn) [ISO, Isoproterenol, reference compound]",increase in the RVID/LVID ratio,[1],24%
same,increase in RVLW thickness compared to control rats,"[1]; hCT1 6 μg/kg/hr, subcutaneous minipump",32 % fold increase
O=c1cc(N2CCOCC2)oc2c(-c3ccccc3)cccc12 [LY294002],decrease in viability compared to cells treated only with hCT1/H2O2,[2]; pre-treatment with LY294002 50 μM before CT-1/H2O2 (FIG. 7C),46%
"OO [H2O2, hydrogen peroxide]",cardiomyocyte viability decreased vs. control,"[2]; 1 h, 300 μM",24%
same,decrease in viability vs. control,[2]; 24 h,70%
"C=CCc1cccc(/C=N/NC(=O)CN2CCN(Cc3ccccc3)CC2)c1O [PAC-1, procaspase 3 activating compound 1, reference compound]",NFAT activity compared to baseline levels,[3],significant increase of NFAT activity
same,Mef2 activation after 24 hrs,[4],significant activation of Mef2
same,VEGF expression (immunofluorescence),[5],less VEGF expression
same,STAT3 activation,[6],only minimal (if any) activation
